Consider one compound from patent publication US20100197610A1, “FRUCTOSE 1, 6 BISPHOSPHATE - A NOVEL ANTICONVULSANT DRUG” (Baylor College of Medicine, priority 2007, published 2010).

In data set [1] the test system is brain slices. As to the kind of experiment: Uptake of FDP in brain slices in vitro. The following applies: incubation 1 hour in 500 μg ml-1 FDP, then washed. It is filed as in vitro ADME, Sprague-Dawley rats. As for the experimental part:
(§1) Actual levels of FDP were determined by monitoring absorbance of reduced nicotinamide adenine dinucleotide (NADH) and treating the sample with aldolase (EC 4.1.2.13, 45 units mg-1 diluted 1:27 with distilled water), the enzyme which cleaves FDP into dihydroxyacetone phosphate (DAP) and D-glyceraldehyde 3-phosphate (GAP). DAP and GAP are interconverted by the enzyme triosephosphate isomerase (TIM, EC 5.3.3.1, 5290 units mg-1 diluted 1:120 with distilled water). Glycerol-3-phosphate dehydrogenase (GDH, EC 1.1.1.8, 252 units mg-1 diluted 1:100 with distilled water) catalyzes the reduction of DAP by NADH. […] After 5 min the absorbance was read 3 times at 340 nm, each reading 3 min apart. The average of these readings is the initial absorbance (Ai). This step removes any DAP or GAP in the sample and determines the baseline absorbance. […] Nine minutes after addition of the aldolase, the final absorbance (Af) was determined by 3 readings at 340 nm, each 6 minutes apart. The concentration of FDP in the sample was proportional to the difference in the initial and final absorbance. […] Levels of FDP in blood were determined per ml, while levels in tissue samples were determined as a function of tissue weight.
Additional experiments determined the uptake of FDP in brain slices in vitro. […]

Data set [2] relates to spontaneous seizures after pilocarpine-induced status epilepticus. As to the kind of experiment: Oral FDP against spontaneous seizures after pilocarpine-induced status epilepticus. It is filed as in vivo. The following applies: FDP 0.5% in drinking water. On the procedure:
Animals (n=14) were treated with pilocarpine to induce status epilepticus and subsequent spontaneous seizures. Four weeks later daily observation was begun and the number of seizures per day was determined for at least 6 days. The mean number of seizures per day over a 6 day period was determined for each animal and this was normalized to 100%. Half of the animals then had FDP added to the drinking water at a concentration of 0.5%. The number of seizures on each day was determined for each animal and calculated as percent of the baseline. The mean (±SEM) across animals in each treatment group was then calculated and plotted as a function of the days of treatment. […] Overall, the data was analyzed with a 2-way ANOVA comparing drug treatment against time and baseline rate of seizures. […] Post-hoc analysis determined that specifically on day 9 and 10 (*) the control was different than FDP-treated. Thus, oral administration of FDP has anticonvulsant activity against the generalized tonic-clonic seizures that are observed after pilocarpine-induced status epilepticus.

For data set [3] the following is noted: cited from earlier work.
The nature of data set [4]: in vivo. Also noted: species or system rats. As to conditions: Sprague-Dawley, rat, po. As for the experimental part:
as §1, with “NADH. For the FDP measurements, 1.5 ml of tetraethyl ammonium buffer (TEA, 0.4 mol l-1, pH 7.6 with EDTA 40 mmol l-1) was added to 1 ml of the sample in a 4 ml cuvette.” for “NADH.”, “weight. […]” for “weight.”

`O=C(COP(=O)(O)O)[C@@H](O)[C@H](O)[C@H](O)COP(=O)(O)O` [F1,6BP, Fructose-1,6-bisphosphate]: the “tissue levels of FDP in brain slices” value in data set [1] is 0.22 ± 0.013 mg/g. Further, the “seizures per day (percent of baseline) vs non-treatment control group” value in data set [2] (2-way ANOVA) was “significantly different”. The “animals having a seizure by day 7” value in data set [2] (7 animals) is given as 1. For the same compound, the toxicity in humans result in data set [3] (administered to humans) is “no reported toxicity”. Also, the “safety in healthy volunteers” value in data set [3] (doses from 5 to 15 g) is reported as “safe”. The same compound gave a concentration at 7 days in data set [4] of 22200 ± 3300 ng/mL. In addition, the “FDP levels in the brain” value in data set [4] (7 days) was determined as 0.50 ± 0.024 mg/g.
